Experimental data reported in patent US10548905B2, “Amorphous onapristone compositions and methods of making the same” (CONTEXT BIOPHARMA INC., priority 2015, dated 2020).

Tests used:
[1] = Physical form by X-ray powder diffraction (XRPD); type: physicochemical; details: no sharp scattering peaks attributable to crystalline onapristone
Excerpt: In one aspect, amorphous onapristone is formed by adding onapristone to water, dissolving the onapristone in the water by adding one equivalent of an acid solution, and subsequently increasing the pH of the solution by the addition of one equivalent of base. At the end of this process, an amorphous precipitate is formed which may be isolated and characterized. […] The presence of a crystalline substance is indicated by the presence of sharp peaks (i.e., those whose width at half-height is in the range of 0.3 to 0.5 degrees 2θ) in an XRPD pattern, while the XRPD pattern of an amorphous substance is characterized by the presence of broad scattering peaks (i.e., those whose width at half-height is in the range of at least 8 to 12 degrees 2θ).
The physical form of onapristone, either as the bulk drug substance or in its compositions, was established using X-ray powder diffraction (XRPD). XRPD patterns were obtained using a Rigaku MiniFlex powder diffraction system, equipped with a horizontal goniometer operating in the θ/2θ mode. The X-ray source was nickel-filtered Kα emission of copper (1.54184 Å). Samples were packed into the sample holder using a back-fill procedure, and were scanned over the range of 3.5 to 40 degrees 2θ at a scan rate of 0.5 degrees 2θ/min. Using a data acquisition rate of 1 point per second, these scanning parameters equate to a step size of 0.0084 degrees 2θ. […]

[2] = Physical stability of amorphous form on storage under ambient conditions, followed by XRPD; type: physicochemical
Excerpt: The physical form of onapristone, either as the bulk drug substance or in its compositions, was established using X-ray powder diffraction (XRPD). XRPD patterns were obtained using a Rigaku MiniFlex powder diffraction system, equipped with a horizontal goniometer operating in the θ/2θ mode. The X-ray source was nickel-filtered Kα emission of copper (1.54184 Å). Samples were packed into the sample holder using a back-fill procedure, and were scanned over the range of 3.5 to 40 degrees 2θ at a scan rate of 0.5 degrees 2θ/min. Using a data acquisition rate of 1 point per second, these scanning parameters equate to a step size of 0.0084 degrees 2θ. Calibration of the diffractometer system was effected using purified talc as a reference material. The intensity scale for all diffraction patterns was normalized so that the relative intensity of the most intense peak in the pattern equaled 100%.
After the initial characterization, the substance was placed in a glass vial, and stored under ambient conditions (temperature of 22-24° C.). The product was subsequently obtained after storage under ambient conditions for 25 weeks, 43 weeks, and 16.5 months.
XRPD patterns of these samples were obtained when initially received and after 12 weeks, 20 weeks, 36 weeks, and 15 months had elapsed. The XRPD patterns obtained for sample SSF-PDS-027-001A are collected in FIG. 2, while the XRPD patterns obtained for sample SSF-PDS-027-001B are collected in FIG. 3.

SMILES | physical form of onapristone by XRPD as initially prepared [1] | storage period over which the drug substance remained amorphous ([2]; stored under ambient conditions (22-24° C.)) [months] | storage period over which the drug substance remained amorphous ([2]; stored under ambient conditions (22-24° C.), listed as pH-cycled product) | storage period over which the drug substance remained amorphous ([2]; stored under ambient conditions)
CN(C)c1ccc([C@H]2C[C@]3(C)[C@@H](CC[C@]3(O)CCCO)[C@@H]3CCC4=CC(=O)CCC4=C32)cc1 [pH-cycled onapristone] | amorphous | ≥ 16.5 | at least 16.5 months | –
CN(C)c1ccc([C@H]2C[C@]3(C)[C@@H](CC[C@]3(O)CCCO)[C@@H]3CCC4=CC(=O)CCC4=C32)cc1 [solvation-desolvation product] | – | – | – | at least 29 weeks
